PubChem BioAssay AID1963842 (Molecular Pharmacology Branch, DTP, NCI, 2024)

Test system: 677734-321-R-J1-PDC complex spheroid viability
Assay: Anticancer human tumor 677734-321-R-J1-PDC patient-derived soft tissue sarcoma cell line growth inhibition [POLQ]
Conditions: for IC50: curve of first compound; for viability, T/C: stronger effect = lower value
Experimental: Multicellular complex tumor spheroid response to Polymerase (POL) inhibitors (novobiocin, ART-558, RP6685) in combination with a variety of drugs and investigational agents in selected tumor cell lines
The POL inhibitors (novobiocin, ART-558, and RP6685) were evaluated both individually and in combination with standard of care and investigational anticancer small molecules within a complex spheroid model of solid tumors. . Complex spheroids include a stromal component modeled by human endothelial cells (HUVEC) and fibroblasts modeled by human mesenchymal stem cells (MSCs). The concentration ranges selected for each drug and investigational agent were based upon clinically achievable concentrations if the clinical Cmax of the agent was known.
Compounds. The drugs and investigational agents: novobiocin (NSC847541), ART-558 (NSC835418), RP-6685 (NSC848927), peposertib (NSC802822), ceralasertib (NSC780249), elimusertib (NSC800525), camonsertib (NSC841442), AZD-1390 (NSC803789), olaparib (NSC753686), talazoparib (NSC767125), rucaparib (NSC756644), sotorasib (NSC818433), MRTX-1133 (NSC836407), SN-38 (NSC673596), topotecan (NSC609699), epotoside (NSC141540), doxorubicin (NSC123127), gemcitabine (NSC613327), 5-fluorouracil (NSC19893), paclitaxel (NSC125973), vemurafenib (NSC761431), MSA-2 (NSC828583), SN-011 (NSC837082), adavosertib (NSC754352), prexasertib (NSC758257), carboplatin (NSC241240) and oxaliplatin (NSC266046), were obtained from the National Cancer Institute (NCI) Developmental Therapeutics Program Chemical Repository (21). The FDA-approved anticancer drug set is available from the Developmental Therapeutics Program at https://dtp.cancer.gov/organization/dscb/obtaining/. […] The stock solutions were prepared in dimethyl sulfoxide (DMSO, Sigma-Aldrich, St. Louis, MO, cat. D2650), except for the platinum compounds which were prepared in saline (Quality Biological, Gaithersburg, MD, cat. 114-055-101), at 800-fold the tested concentration and stored at -70 degrees C prior to their use. All drugs and investigational agents were tested over a range starting from a high concentration at or near the clinical Cmax and decreasing in half-log increments. If the clinical Cmax for an agent had not been determined, the highest concentration tested was 10 microM, except for SN-38, which was tested at a high concentration of 1 microM.
Cell Culture. All cells were maintained in an incubator at 37 degrees C and 5% CO2 with 95% humidity. The PDC lines were cultured according to standard operating procedures established by the NCI PDMR (https://pdmr.cancer.gov). Table 3 of the manuscript, lists the cell lines along with the number of the three cell types plated to form the mct-spheroids and media for tumor cell growth. After thawing, all PDC lines, except 997537-175-T-J1-PDC and 415267-285-R-J2-PDC, were cultured in Matrigel-coated flasks prepared with a working solution of 1X Ham's F-12 nutrient mix, without supplementation (Thermo Fisher Scientific, cat. 11765054), 100 U/mL penicillin-streptomycin (Thermo Fisher Scientific, cat. 15140122), and 2.5% Matrigel (Corning Inc., Corning, NY, cat. 354248) for the first three passages. The two PDC lines 997537-175-T-J1-PDC and 415267-285-R-J2-PDC were cultured on uncoated flasks. The 857933-349-R-J2-PDC line was cultured in 6C/Colon 1B media containing advanced DMEM/F-12 (Thermo Fisher Scientific, cat. 12634028), 10 mM HEPES (Thermo Fisher Scientific, cat. 15630080), 1X GlutaMAX supplement (Thermo Fisher Scientific, cat. 35050061), 0.1 mg/mL primocin (InvivoGen, San Diego, CA, cat. ant-pm-2), 10% defined fetal bovine serum, heat inactivated (HyClone Laboratories Inc., Logan, UT, cat. SH30070.03HI), 50% L-WRN conditioned media (ATCC, cat. CRL-3276), 1.25 mM N-Acetyl-L-cysteine (Sigma-Aldrich, cat. A9165), 10 mM nicotinamide (Sigma-Aldrich, cat. N0636), 1X B-27 supplement (Thermo Fisher Scientific, cat. 17504044), 1X N-2 supplement (Thermo Fisher Scientific, cat. […]

[1] = second compound 0.0316 µM, first compound 0.0316 µM
[2] = second compound 0.0316 µM, first compound 0.1 µM
[3] = second compound 0.0316 µM, first compound 0.316 µM
[4] = second compound 0.0316 µM, first compound 1 µM
[5] = second compound 0.0316 µM, first compound 3.16 µM
[6] = second compound 0.0316 µM, first compound 10 µM
[7] = second compound 0.1 µM, first compound 0.0316 µM
[8] = second compound 0.1 µM, first compound 0.1 µM
[9] = second compound 0.1 µM, first compound 0.316 µM
[10] = second compound 0.1 µM, first compound 1 µM
[11] = second compound 0.1 µM, first compound 3.16 µM
[12] = second compound 0.1 µM, first compound 10 µM
[13] = second compound 0.316 µM, first compound 0.0316 µM
[14] = second compound 0.316 µM, first compound 0.1 µM
[15] = second compound 0.316 µM, first compound 0.316 µM
[16] = second compound 0.316 µM, first compound 1 µM
[17] = second compound 0.316 µM, first compound 3.16 µM
[18] = second compound 0.316 µM, first compound 10 µM
[19] = second compound 1 µM, first compound 0.0316 µM
[20] = second compound 1 µM, first compound 0.1 µM
[21] = second compound 1 µM, first compound 0.316 µM
[22] = second compound 1 µM, first compound 1 µM
[23] = second compound 1 µM, first compound 3.16 µM
[24] = second compound 1 µM, first compound 10 µM
[25] = second compound 3.16 µM, first compound 0.0316 µM
[26] = second compound 3.16 µM, first compound 0.1 µM
[27] = second compound 3.16 µM, first compound 0.316 µM
[28] = second compound 3.16 µM, first compound 1 µM
[29] = second compound 3.16 µM, first compound 3.16 µM
[30] = second compound 3.16 µM, first compound 10 µM
[31] = second compound 10 µM, first compound 0.0316 µM
[32] = second compound 10 µM, first compound 0.1 µM
[33] = second compound 10 µM, first compound 0.316 µM
[34] = second compound 10 µM, first compound 1 µM
[35] = second compound 10 µM, first compound 3.16 µM
[36] = second compound 10 µM, first compound 10 µM
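Also: spheroids exposed to compounds for one week.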
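For viability, T/C in this document: 100% = vehicle DMSO treated spheroids.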

COc1cccc2c1C(=O)c1c(O)c3c(c(O)c1C2=O)CC(O)(C(=O)CO)CC3OC1CC(N)C(O)C(C)O1 (centres undefined) + COC1C(OC(N)=O)C(O)C(Oc2ccc3c(O)c(NC(=O)c4ccc(O)c(CC=C(C)C)c4)c(=O)oc3c2C)OC1(C)C
IC50 (second compound 0.0316 µM): 104 nM | IC50 (second compound 0.1 µM): 138 nM | IC50 (second compound 0.316 µM): 133 nM | IC50 (second compound 1 µM): 148 nM | IC50 (second compound 3.16 µM): 130 nM | IC50 (second compound 10 µM): 139 nM | viability, T/C [1]: 84.4% | viability, T/C [2]: 51.5% | viability, T/C [3]: 7.79% | viability, T/C [4]: 3.03% | viability, T/C [5]: 2.77% | viability, T/C [6]: 2.45% | viability, T/C [7]: 77.6% | viability, T/C [8]: 66.7% | viability, T/C [9]: 7.11% | viability, T/C [10]: 0.57% | viability, T/C [11]: 1.78% | viability, T/C [12]: 3.77% | viability, T/C [13]: 60.4% | viability, T/C [14]: 67% | viability, T/C [15]: 7.66% | viability, T/C [16]: 0.61% | viability, T/C [17]: 2.67% | viability, T/C [18]: 3.36% | viability, T/C [19]: 83.5% | viability, T/C [20]: 70.1% | viability, T/C [21]: 11.2% | viability, T/C [22]: 0.59% | viability, T/C [23]: 1.98% | viability, T/C [24]: 2.55% | viability, T/C [25]: 74.5% | viability, T/C [26]: 62.4% | viability, T/C [27]: 8.7% | viability, T/C [28]: 0.64% | viability, T/C [29]: 2.76% | viability, T/C [30]: 2.4% | viability, T/C [31]: 68.8% | viability, T/C [32]: 67.1% | viability, T/C [33]: 7.17% | viability, T/C [34]: 0.88% | viability, T/C [35]: 3.28% | viability, T/C [36]: 1.86%

O=C(c1cc(Cc2n[nH]c(=O)c3ccccc23)ccc1F)N1CCN(C(=O)C2CC2)CC1 + COC1C(OC(N)=O)C(O)C(Oc2ccc3c(O)c(NC(=O)c4ccc(O)c(CC=C(C)C)c4)c(=O)oc3c2C)OC1(C)C
IC50 (second compound 0.0316 µM): > 10000 nM | IC50 (second compound 0.1 µM): > 10000 nM | IC50 (second compound 0.316 µM): > 10000 nM | IC50 (second compound 1 µM): > 10000 nM | IC50 (second compound 3.16 µM): > 10000 nM | IC50 (second compound 10 µM): > 10000 nM | viability, T/C [1]: 108% | viability, T/C [2]: 105% | viability, T/C [3]: 103% | viability, T/C [4]: 110% | viability, T/C [5]: 102% | viability, T/C [6]: 86.4% | viability, T/C [7]: 104% | viability, T/C [8]: 112% | viability, T/C [9]: 101% | viability, T/C [10]: 104% | viability, T/C [11]: 107% | viability, T/C [12]: 79.6% | viability, T/C [13]: 112% | viability, T/C [14]: 111% | viability, T/C [15]: 104% | viability, T/C [16]: 111% | viability, T/C [17]: 111% | viability, T/C [18]: 78.1% | viability, T/C [19]: 108% | viability, T/C [20]: 105% | viability, T/C [21]: 111% | viability, T/C [22]: 99.9% | viability, T/C [23]: 107% | viability, T/C [24]: 81.2% | viability, T/C [25]: 117% | viability, T/C [26]: 111% | viability, T/C [27]: 113% | viability, T/C [28]: 103% | viability, T/C [29]: 100% | viability, T/C [30]: 87.3% | viability, T/C [31]: 118% | viability, T/C [32]: 106% | viability, T/C [33]: 108% | viability, T/C [34]: 112% | viability, T/C [35]: 103% | viability, T/C [36]: 88%
